Data reported in ChEMBL document CHEMBL4190279 (Eur J Med Chem, 2017).

Key:
in vitro = details: human, hTERT-BJ cells
Description: Antiproliferative activity against human hTERT-BJ cells after 48 hrs by SRB assay

SW1573 [1] = assay: cells; details: Homo sapiens, SW1573, 48 h
Description: Antiproliferative activity against human SW1573 cells after 48 hrs by SRB assay

WiDr [2] = assay: cells; details: Homo sapiens, 48 h
Description: Antiproliferative activity against human WiDr cells after 48 hrs by SRB assay

[3] = GPx-like activity of the compound assessed as H2O2 reduction by measuring oxidation of PhSH to (PhS)2 at 50 uM measured for 180 secs by spectrophotometric analysis relative to control; assay type: functional
T47D [4] = assay: cells; details: Homo sapiens, 48 h
Description: Antiproliferative activity against human T47D cells after 48 hrs by SRB assay

HeLa [5] = assay: cells; details: Homo sapiens, 48 h
Description: Antiproliferative activity against human HeLa cells after 48 hrs by SRB assay

Acetylcholinesterase [6] = biological target: T1, Acetylcholinesterase (Electrophorus electricus, UniProt O42275); assay: Competitive inhibition of electric eel AChE assessed as enzyme-inhibitor complex using p-nitrophenyl acetate as substrate by Lineweaver-Burk plot analysis
T1 sequence (O42275 whole entry): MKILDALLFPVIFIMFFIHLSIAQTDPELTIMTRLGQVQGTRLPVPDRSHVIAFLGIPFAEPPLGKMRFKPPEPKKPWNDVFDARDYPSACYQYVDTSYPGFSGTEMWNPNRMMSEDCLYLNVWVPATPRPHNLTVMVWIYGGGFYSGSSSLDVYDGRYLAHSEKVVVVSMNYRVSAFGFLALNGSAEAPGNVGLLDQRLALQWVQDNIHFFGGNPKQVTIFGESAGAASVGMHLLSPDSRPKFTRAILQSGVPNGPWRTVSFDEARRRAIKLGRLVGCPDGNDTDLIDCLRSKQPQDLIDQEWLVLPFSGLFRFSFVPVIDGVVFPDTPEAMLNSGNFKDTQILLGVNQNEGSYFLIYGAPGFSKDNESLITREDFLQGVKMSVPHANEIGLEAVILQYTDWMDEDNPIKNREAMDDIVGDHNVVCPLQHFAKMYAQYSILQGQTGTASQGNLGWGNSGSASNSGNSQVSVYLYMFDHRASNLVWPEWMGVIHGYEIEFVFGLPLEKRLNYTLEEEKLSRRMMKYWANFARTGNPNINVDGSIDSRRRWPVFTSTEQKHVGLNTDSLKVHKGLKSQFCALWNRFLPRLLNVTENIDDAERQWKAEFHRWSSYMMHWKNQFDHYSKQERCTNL

[7] = GPx-like activity of the compound assessed as velocity for H2O2 reduction by measuring oxidation of PhSH to (PhS)2 at 50 uM measured for 180 secs by spectrophotometric analysis; assay type: functional
A549 [8] = assay: cells; details: Homo sapiens, A549, 48 h
Description: Antiproliferative activity against human A549 cells after 48 hrs by SRB assay

[9] = GPx-like activity of the compound assessed as half life for H2O2 reduction by measuring oxidation of PhSH to (PhS)2 at 50 uM measured for 180 secs by spectrophotometric analysis relative to control; assay type: functional
HBL-100 [10] = assay: cells; details: Homo sapiens, HBL-100, 48 h
Description: Antiproliferative activity against human HBL100 cells after 48 hrs by SRB assay

Cholinesterase [11] = biological target: T2, Cholinesterase (Equus caballus, UniProt P81908)
T2 sequence (P81908 whole entry): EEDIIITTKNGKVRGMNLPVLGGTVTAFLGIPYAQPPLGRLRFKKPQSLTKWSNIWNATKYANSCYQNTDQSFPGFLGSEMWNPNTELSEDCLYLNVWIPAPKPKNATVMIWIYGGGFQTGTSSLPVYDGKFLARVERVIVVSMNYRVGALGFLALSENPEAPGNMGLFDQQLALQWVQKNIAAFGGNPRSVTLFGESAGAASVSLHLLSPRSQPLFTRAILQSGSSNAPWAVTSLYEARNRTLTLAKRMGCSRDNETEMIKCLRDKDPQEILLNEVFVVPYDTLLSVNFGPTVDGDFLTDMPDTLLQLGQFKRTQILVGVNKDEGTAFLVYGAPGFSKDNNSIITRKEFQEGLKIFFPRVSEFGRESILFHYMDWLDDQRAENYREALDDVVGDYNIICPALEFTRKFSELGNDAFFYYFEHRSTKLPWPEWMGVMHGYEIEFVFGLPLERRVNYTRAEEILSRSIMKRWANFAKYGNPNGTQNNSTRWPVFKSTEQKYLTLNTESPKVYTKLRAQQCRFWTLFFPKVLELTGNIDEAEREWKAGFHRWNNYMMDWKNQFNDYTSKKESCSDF
Description: Competitive inhibition of equine serum BuChE assessed as enzyme-inhibitor complex using p-nitrophenyl butyrate as substrate by Lineweaver-Burk plot analysis

Acetylcholinesterase [12] = biological target: T1, Acetylcholinesterase; assay: Non-competitive inhibition of electric eel AChE assessed as enzyme-inhibitor complex using p-nitrophenyl acetate as substrate by Lineweaver-Burk plot analysis
Acetylcholinesterase [13] = biological target: T1, Acetylcholinesterase; assay: Non-competitive inhibition of electric eel AChE assessed as enzyme-substrate-inhibitor complex using p-nitrophenyl acetate as substrate by Lineweaver-Burk plot analysis
Cholinesterase [14] = biological target: T2, Cholinesterase; assay: Non-competitive inhibition of equine serum BuChE assessed as enzyme-substrate-inhibitor complex using p-nitrophenyl butyrate as substrate by Lineweaver-Burk plot analysis
Cholinesterase [15] = biological target: T2, Cholinesterase; assay: Non-competitive inhibition of equine serum BuChE assessed as enzyme-inhibitor complex using p-nitrophenyl butyrate as substrate by Lineweaver-Burk plot analysis
SW1573 [16] = assay: Potency index, ratio of cisplatin GI50 to compound GI50 for human SW1573 cells; assay type: functional
A549 [17] = assay: Potency index, ratio of cisplatin GI50 to compound GI50 for human A549 cells; assay type: functional
T47D [18] = assay: Potency index, ratio of cisplatin GI50 to compound GI50 for human T47D cells; assay type: functional
HBL-100 [19] = assay: Potency index, ratio of cisplatin GI50 to compound GI50 for human HBL100 cells; assay type: functional
HeLa [20] = assay: Potency index, ratio of 5-FU GI50 to compound GI50 for human HeLa cells; assay type: functional
WiDr [21] = assay: Potency index, ratio of 5-FU GI50 to compound GI50 for human WiDr cells; assay type: functional
SW1573 [22] = assay: Potency index, ratio of 5-FU GI50 to compound GI50 for human SW1573 cells; assay type: functional
WiDr [23] = assay: Potency index, ratio of cisplatin GI50 to compound GI50 for human WiDr cells; assay type: functional
HBL-100 [24] = assay: Potency index, ratio of 5-FU GI50 to compound GI50 for human HBL100 cells; assay type: functional
Cholinesterase [25] = biological target: T2, Cholinesterase; assay: Mixed-type inhibition of equine serum BuChE assessed as enzyme-inhibitor complex using p-nitrophenyl butyrate as substrate by Lineweaver-Burk plot analysis
Cholinesterase [26] = biological target: T2, Cholinesterase; assay: Mixed-type inhibition of equine serum BuChE assessed as enzyme-substrate-inhibitor complex using p-nitrophenyl butyrate as substrate by Lineweaver-Burk plot analysis
HeLa [27] = assay: Potency index, ratio of cisplatin GI50 to compound GI50 for human HeLa cells; assay type: functional
[28] = Selectivity index, ratio of Ki for equine serum BuChE assessed as enzyme-substrate-inhibitor complex to Ki for electric eel AChE assessed as enzyme-substrate-inhibitor complex
T47D [29] = assay: Potency index, ratio of 5-FU GI50 to compound GI50 for human T47D cells; assay type: functional
[30] = Potency index, ratio of compound velocity to diphenyl diselenide velocity for GPx-like activity assessed as H2O2 reduction by measuring oxidation of PhSH to (PhS)2; assay type: functional
[31] = Potency index, ratio of compound velocity to ebselen velocity for GPx-like activity assessed as H2O2 reduction by measuring oxidation of PhSH to (PhS)2; assay type: functional
Acetylcholinesterase [32] = biological target: T1, Acetylcholinesterase; assay: Mixed-type inhibition of electric eel AChE assessed as enzyme-inhibitor complex using p-nitrophenyl acetate as substrate by Lineweaver-Burk plot analysis
Acetylcholinesterase [33] = biological target: T1, Acetylcholinesterase; assay: Mixed-type inhibition of electric eel AChE assessed as enzyme-substrate-inhibitor complex using p-nitrophenyl acetate as substrate by Lineweaver-Burk plot analysis
[34] = biological target: Amyloid-beta precursor protein (Homo sapiens) (UniProt P05067); assay: Inhibition of amyloid beta (1 to 42) (unknown origin) self aggregation at 50 uM relative to control
Chain of Amyloid-beta precursor protein (Homo sapiens) (P05067 whole entry): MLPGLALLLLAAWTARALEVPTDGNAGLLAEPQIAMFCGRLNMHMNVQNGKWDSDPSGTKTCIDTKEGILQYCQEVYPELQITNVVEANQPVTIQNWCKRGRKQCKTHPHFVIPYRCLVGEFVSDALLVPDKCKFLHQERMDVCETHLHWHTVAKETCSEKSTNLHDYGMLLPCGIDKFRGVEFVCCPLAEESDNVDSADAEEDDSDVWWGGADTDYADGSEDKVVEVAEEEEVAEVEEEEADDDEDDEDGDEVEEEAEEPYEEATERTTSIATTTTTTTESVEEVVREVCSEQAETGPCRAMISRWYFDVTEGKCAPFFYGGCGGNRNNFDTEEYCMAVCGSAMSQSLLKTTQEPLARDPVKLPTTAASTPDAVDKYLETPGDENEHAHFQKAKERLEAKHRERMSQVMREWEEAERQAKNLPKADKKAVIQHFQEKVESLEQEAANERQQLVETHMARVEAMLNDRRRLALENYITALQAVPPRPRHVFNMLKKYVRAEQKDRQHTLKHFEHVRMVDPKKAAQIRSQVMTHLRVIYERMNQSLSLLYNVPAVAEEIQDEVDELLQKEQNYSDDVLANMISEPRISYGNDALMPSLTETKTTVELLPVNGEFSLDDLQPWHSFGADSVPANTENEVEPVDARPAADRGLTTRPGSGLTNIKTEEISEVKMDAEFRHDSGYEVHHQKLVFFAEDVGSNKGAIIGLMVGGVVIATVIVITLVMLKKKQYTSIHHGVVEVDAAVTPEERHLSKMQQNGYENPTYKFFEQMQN

[35] = biological target: Amyloid-beta precursor protein (Homo sapiens) (UniProt P05067); assay: Inhibition of amyloid beta (1 to 42) (unknown origin) self aggregation at 50 uM after 24 hrs by ThT-based fluorometric method relative to control
N2a = assay: Cytotoxicity against mouse N2A cells assessed as reduction in cell viability at 50 uM after 24 hrs by MTT assay; assay type: cell-based
Acetylcholinesterase [36] = biological target: T3, Acetylcholinesterase (Homo sapiens, UniProt P22303); assay: Inhibition of human serum AChE using acetylthiocholine iodide as substrate preincubated for 20 mins followed by substrate addition measured after 5 mins by Ellman's method
T3 sequence (P22303 whole entry): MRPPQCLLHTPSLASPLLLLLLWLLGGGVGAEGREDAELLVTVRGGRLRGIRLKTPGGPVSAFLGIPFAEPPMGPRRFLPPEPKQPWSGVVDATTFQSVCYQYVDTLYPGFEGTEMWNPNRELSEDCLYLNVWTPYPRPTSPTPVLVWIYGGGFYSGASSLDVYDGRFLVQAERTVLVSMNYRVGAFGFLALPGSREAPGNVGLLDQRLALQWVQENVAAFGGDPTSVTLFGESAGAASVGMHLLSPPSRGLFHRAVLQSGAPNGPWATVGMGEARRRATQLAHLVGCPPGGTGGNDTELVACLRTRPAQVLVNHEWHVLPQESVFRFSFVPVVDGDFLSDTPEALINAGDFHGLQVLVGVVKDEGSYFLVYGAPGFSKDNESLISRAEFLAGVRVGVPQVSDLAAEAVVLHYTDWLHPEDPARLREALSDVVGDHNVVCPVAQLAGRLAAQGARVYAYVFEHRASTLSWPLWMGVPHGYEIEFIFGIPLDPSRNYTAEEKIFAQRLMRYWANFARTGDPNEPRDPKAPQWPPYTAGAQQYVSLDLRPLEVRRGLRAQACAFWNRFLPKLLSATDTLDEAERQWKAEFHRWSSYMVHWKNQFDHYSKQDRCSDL

[37] = Selectivity index, ratio of GI50 for human hTERT-BJ cells to GI50 for human WiDr cells; assay type: toxicity; details: hTERT-BJ cells versus WiDr cells, read-out: RatioGI50
Acetylcholinesterase [38] = biological target: T3, Acetylcholinesterase; assay: Potency index, ratio of cystamine-tacrine IC50 to compound IC50 for human AChE

Row | Compound | GI50 at 48 h (in vitro) [µM] | GI50 (SW1573 [1]) [µM] | GI50 (WiDr [2]) [µM] | fold change (FC) [3] | GI50 (T47D [4]) [µM] | GI50 (HeLa [5]) [µM] | Activity [7] [µM/min] | GI50 (A549 [8]) [µM] | T1/2 [9] [h] | GI50 (HBL-100 [10]) [µM] | Ki (Cholinesterase [25]) [µM] | Ki (Cholinesterase [26]) [µM] | Ratio Ki [28] | other results
1 | N#C[Se]CCCCCNc1c2c(nc3ccccc13)CCCC2 | 0.36 | 0.65 | 0.65 | 2.9 | 0.7 | 0.37 | 22.4 | 1.2 | 1.86 | 1.1 | – | – | – | Ki (Acetylcholinesterase [6]): 0.0345 µM; Ki (Cholinesterase [11]): 0.206 µM
2 | O=c1c2ccccc2[se]n1-c1ccccc1 | – | – | – | 0.3 | – | – | 2 | – | 20.8 | – | – | – | – | –
3 | O=c1[nH]cc(F)c(=O)[nH]1 [FLUOROURACIL] | 5.5 | 4.3 | 49 | – | 47 | 15 | – | – | – | 5.5 | – | – | – | –
4 | N#CSCCCCCNc1c2c(nc3ccccc13)CCCC2 | – | 15 | 4.1 | 3 | 8.3 | 11 | 23.1 | 14 | 1.8 | 15 | – | – | – | Ki (Acetylcholinesterase [12]): 0.0501 µM; Ki (Acetylcholinesterase [13]): 0.0501 µM; Ki (Cholinesterase [11]): 0.228 µM
5 | Cc1ccc(NC(=[Se])NCCCCCCNc2c3c(nc4ccccc24)CCCC3)cc1 | – | 3.7 | 2.2 | 3.8 | 3 | 4.1 | 29.6 | 5.5 | 1.41 | 8.1 | – | – | – | Ki (Cholinesterase [14]): 0.0107 µM; Ki (Acetylcholinesterase [6]): 0.0076 µM; Ki (Cholinesterase [15]): 0.0107 µM
6 | c1ccc2c(NCCCCCCSSCCCCCCNc3c4c(nc5ccccc35)CCCC4)c3c(nc2c1)CCCC3 | 0.22 | 0.24 | 0.2 | 4.2 | 0.37 | 0.33 | 32.8 | 1.1 | 1.27 | 0.99 | 0.243 | 0.07 | 4.7 | RatioGI50 (SW1573 [16]): <=162; RatioGI50 (A549 [17]): <=162; Ki (Acetylcholinesterase [12]): 0.0148 µM; RatioGI50 (T47D [18]): <=162; RatioGI50 (HBL-100 [19]): <=162; RatioGI50 (HeLa [20]): <=306; RatioGI50 (WiDr [21]): <=306; RatioGI50 (SW1573 [22]): <=306; RatioGI50 (WiDr [23]): <=162; RatioGI50 (HBL-100 [24]): <=306; RatioGI50 (HeLa [27]): <=162; Ki (Acetylcholinesterase [13]): 0.0148 µM; RatioGI50 (T47D [29]): <=306
7 | c1ccc([Se][Se]c2ccccc2)cc1 | – | – | – | 1.9 | – | – | 14.8 | – | 2.81 | – | – | – | – | –
8 | COc1ccc(NC(=[Se])NCCCCCCNc2c3c(nc4ccccc24)CCCC3)cc1 | – | – | – | 10.6 | – | – | 82.9 | – | 0.503 | – | – | – | 1.1 | Ki (Acetylcholinesterase [12]): 0.0266 µM; Ratio [30]: 5.6; Ki (Cholinesterase [14]): 0.0286 µM; Ki (Cholinesterase [15]): 0.0286 µM; Ki (Acetylcholinesterase [13]): 0.0266 µM; Ratio [31]: 41.4
9 | O=C(C[Se]c1ccccc1)Nc1c2c(nc3ccccc13)CCCC2 | – | > 100 | > 100 | 0.5 | 53 | 32 | 3.6 | 37 | 11.6 | 35 | 0.518 | 1.71 | 0.5 | Ki (Acetylcholinesterase [32]): 8.42 µM; Ki (Acetylcholinesterase [33]): 3.54 µM
10 | c1ccc2c(NCCSSCCNc3c4c(nc5ccccc35)CCCC4)c3c(nc2c1)CCCC3 | – | – | – | – | – | – | – | – | – | – | – | – | – | inhibition [34]: 66.3%
11 | N#CSCCCCCCNc1c2c(nc3ccccc13)CCCC2 | – | 5.1 | 2.4 | 2.8 | 5.5 | 8.1 | 21.6 | 8.3 | 1.93 | 11 | 0.252 | 0.673 | – | Ki (Acetylcholinesterase [6]): 0.0185 µM
12 | c1ccc2c(NCCCCCCCNc3c4c(nc5ccccc35)CCCC4)c3c(nc2c1)CCCC3 | – | – | – | – | – | – | – | – | – | – | – | – | – | inhibition [34]: 71.1%
13 | c1ccc2c(NCCCCCSSCCCCCNc3c4c(nc5ccccc35)CCCC4)c3c(nc2c1)CCCC3 | 1.4 | 0.29 | 0.3 | 4.6 | 0.95 | 1 | 35.5 | 1.4 | 1.17 | 1.2 | 0.166 | 0.422 | 74 | RatioGI50 (SW1573 [16]): <=162; RatioGI50 (A549 [17]): <=162; RatioGI50 (T47D [18]): <=162; RatioGI50 (HBL-100 [19]): <=162; RatioGI50 (HeLa [20]): <=306; inhibition [35]: 61.8%; Activity (N2a): Non-Toxic; RatioGI50 (WiDr [21]): <=306; Ki (Acetylcholinesterase [32]): 0.0031 µM; RatioGI50 (SW1573 [22]): <=306; IC50 (Acetylcholinesterase [36]): 0.00162 µM; RatioGI50 (WiDr [23]): <=162; selectivity ratio [37]: ≤ 4.7; RatioGI50 (HBL-100 [24]): <=306; RatioGI50 (HeLa [27]): <=162; Ratio IC50 (Acetylcholinesterase [38]): 3; Ki (Acetylcholinesterase [33]): 0.0057 µM; RatioGI50 (T47D [29]): <=306
